Assay results taken from US8629143B2, “Potassium channel modulators” (AbbVie Inc., priority 2009, dated 2014).

Target: T1, KCNQ 2/3 channels (HEK293 cells stably expressing human KCNQ2 and KCNQ3 subunits) (Homo sapiens, UniProt O43525+O43526)
T1 construct: expressed in transfected cells; host or cells: HEK293
Experiment: KCNQ2/3 channel activation, thallium flux FLIPR assay with BTC-AM dye
Type: cell-based
Conditions: for Emax: HEK293, read-out: Max. %; for EC50: HEK293 cells expressing human KCNQ2 and KCNQ3, thallium flux, FLIPR
Description: The following example describes the assay that can be used to identify compounds that activate KCNQ 2/3 channels.
HEK293 cells stably expressing human KCNQ2 and KCNQ3 subunits were seeded in 96-well, black-walled, clear-bottomed, poly-D-lysine coated plates (BD Biosciences, Bedford, Mass.) at a density of 1×10^5 cells per well 24 hours before the assay. On the assay day, BTC-AM dye (Invitrogen, Carlsbad, Calif.) was loaded into the cells by replacing the cell culture medium with 55 μL/well of 3 μg/mL dye in DPBS. Dye loading was allowed to proceed for 2 hours at room temperature and then cells were washed twice with 50 μL/well of assay buffer (in mM: 10 HEPES pH 7.3, 5 glucose, 140 Na-gluconate, 2.5 K-gluconate, 3.6 Ca-gluconate, 2 MgSO4, 0.1 Ouabain) to remove unloaded dye. Cells were incubated in 50 μL of assay buffer before loading onto a FLIPR system (Molecular Devices, Sunnyvale, Calif.). Various concentrations of compounds to be assayed were added to the cells in 50 μL of assay buffer and incubated for 4 minutes. The fluorescence signal was initiated by adding 100 μL of assay buffer containing 6 mM TlNO3 and 10 mM K2SO4. Fluors were excited using the 488-nm line of an argon laser and emission was filtered using a 540±30 nm bandpass filter. Fluorescent signals were recorded for 3 minutes. Sums of the responses over basal responses were plotted versus concentrations of test compounds to obtain an EC50 value. The maximum response for each test compound was determined relative to the response produced by 10 μM retigabine. The maximum response of retigabine at 10 μM was set at 100%.

[1] = maximum response relative to the response produced by 10 μM retigabine (set at 100%)

**Q.** How did the Emax [1] turn out when `O=C(CC1CC2CCC1C2)Nn1nc(C(F)(F)F)c2ccccc2c1=O` (racemic) [Example 58, (±)-2-(exo-bicyclo[2.2.1]heptan-2-yl)-N-[1-oxo-4-(trifluoromethyl)phthalazin-2(1H)-yl]acetamide] was run?
**A.** The Emax was 137%.

**Q.** What about the EC50 of the same molecule?
**A.** The EC50 was 100 to 500 nM.

**Q.** What does the source list for `CC(C)(C)c1nn(NC(=O)CC2CC3CCC2C3)c(=O)c2ccccc12` (racemic) [Example 63, (±)-2-(exo-bicyclo[2.2.1]heptan-2-yl)-N-(4-tert-butyl-1-oxophthalazin-2(1H)-yl)acetamide]?
**A.** Emax [1]: 160%; EC50: < 100 nM

**Q.** How did the Emax [1] turn out when `O=C(C[C@H]1C[C@@H]2CC[C@H]1C2)Nn1nc(C2CCC2)c2ccccc2c1=O` (racemic) [Example 68, (±)-2-(exo-bicyclo[2.2.1]heptan-2-yl)-N-(4-cyclobutyl-1-oxophthalazin-2(1H)-yl)acetamide] was run?
**A.** Its Emax is 164%.

**Q.** What about the EC50 of the same molecule?
**A.** The EC50 was under 100 nM.

**Q.** Which results are given for `O=C(CC1CC2CCC1C2)Nn1nc(C2CCCC2)c2ccccc2c1=O` (racemic) [Example 71, (±)-2-(exo-bicyclo[2.2.1]heptan-2-yl)-N-(4-cyclopentyl-1-oxophthalazin-2(1H)-yl)acetamide]?
**A.** Emax [1]: 162%; EC50: < 100 nM

**Q.** With `O=C(CC1CC2CCC1C2)Nn1nc(C2CCCCC2)c2ccccc2c1=O` (racemic) [Example 74, (±)-2-(exo-bicyclo[2.2.1]heptan-2-yl)-N-(4-cyclohexyl-1-oxophthalazin-2(1H)-yl)acetamide] as the molecule, how does the Emax [1] read?
**A.** The Emax was 165%.

**Q.** What about the EC50 of the same molecule?
**A.** Its EC50 is under 100 nM.

**Q.** How did the Emax [1] turn out when `O=C(CC1CC2CCC1C2)Nn1nc(-c2ccc(C(=O)O)cc2)c2ccccc2c1=O` (racemic) [Example 78, (±)-4-(3-{[(exo-bicyclo[2.2.1]heptan-2-yl)acetyl]amino}-4-oxo-3,4-dihydrophthalazin-1-yl)benzoic acid] was run?
**A.** The Emax was 140%.

**Q.** And the EC50?
**A.** Its EC50 is 1000 to 10000 nM.

**Q.** Which Emax [1] does the source give for `COC(=O)c1ccc(-c2nn(NC(=O)C[C@H]3C[C@@H]4CC[C@H]3C4)c(=O)c3ccccc23)cc1` (racemic) [Example 79, (±)-methyl 4-(3-{[exo-bicyclo[2.2.1]hept-2-ylacetyl]amino}-4-oxo-3,4-dihydrophthalazin-1-yl)benzoate] here?
**A.** The Emax was 144%.

**Q.** And the EC50?
**A.** The EC50 was under 100 nM.

**Q.** With `CN(C)C(=O)c1ccc(-c2nn(NC(=O)CC3CC4CCC3C4)c(=O)c3ccccc23)cc1` (racemic) [Example 81, (±)-4-(3-{[exo-bicyclo[2.2.1]hept-2-ylacetyl]amino}-4-oxo-3,4-dihydrophthalazin-1-yl)-N,N-dimethylbenzamide] as the molecule, how does the Emax [1] read?
**A.** The Emax was 50%.

**Q.** And the EC50?
**A.** Its EC50 is over 10000 nM.

**Q.** What does the source list for `O=C(C[C@H]1C[C@@H]2CC[C@H]1C2)Nn1nc(-c2ccc(Br)cc2)c2ccccc2c1=O` (racemic) [Example 84, (±)-2-(exo-bicyclo[2.2.1]heptan-2-yl)-N-[4-(4-bromophenyl)-1-oxophthalazin-2(1H)-yl]acetamide]?
**A.** Emax [1]: 134%; EC50: < 100 nM

**Q.** How did the Emax [1] turn out when `O=C(CC1CC2CCC1C2)Nn1nc(-c2ccc(Cl)cc2)c2ccccc2c1=O` (racemic) [Example 113, (±)-2-(exo-bicyclo[2.2.1]hept-2-yl)-N-[4-(4-chlorophenyl)-1-oxophthalazin-2(1H)-yl]acetamide] was run?
**A.** Its Emax is 154%.

**Q.** What about the EC50 of the same molecule?
**A.** The EC50 was under 100 nM.

**Q.** Which Emax [1] does the source give for `O=C(CC1CC2CCC1C2)Nn1nc(-c2cccc(Cl)c2)c2ccccc2c1=O` (racemic) [Example 125, (±)-2-(exo-bicyclo[2.2.1]hept-2-yl)-N-[4-(3-chlorophenyl)-1-oxophthalazin-2(1H)-yl]acetamide] here?
**A.** The Emax was 150%.

**Q.** And the EC50?
**A.** The EC50 was under 100 nM.

**Q.** Which results are given for `O=C(CC1CC2CCC1C2)Nn1nc(-c2ccc(F)cc2)c2ccccc2c1=O` (racemic) [Example 131, (±)-2-(exo-bicyclo[2.2.1]hept-2-yl)-N-[4-(4-fluorophenyl)-1-oxophthalazin-2(1H)-yl]acetamide]?
**A.** Emax [1]: 150%; EC50: < 100 nM

**Q.** How did the Emax [1] turn out when `O=C(C[C@H]1C[C@@H]2CC[C@H]1C2)Nn1nc(-c2ccc(F)cc2F)c2ccccc2c1=O` (racemic) [Example 134, (±)-2-(exo-bicyclo[2.2.1]hept-2-yl)-N-[4-(2,4-difluorophenyl)-1-oxophthalazin-2(1H)-yl]acetamide] was run?
**A.** The Emax was 192%.

**Q.** What about the EC50 of the same molecule?
**A.** The EC50 was under 100 nM.

**Q.** How did the Emax [1] turn out when `O=C(C[C@H]1C[C@@H]2CC[C@H]1C2)Nn1nc(Cc2ccccc2)c2ccccc2c1=O` (racemic) [Example 141, (±)-N-(4-benzyl-1-oxophthalazin-2(1H)-yl)-2-(exo-bicyclo[2.2.1]hept-2-yl)acetamide] was run?
**A.** Its Emax is 130%.

**Q.** And the EC50?
**A.** Its EC50 is under 100 nM.

**Q.** What does the source list for `O=C(CC1CC2CCC1C2)Nn1nc(Cc2ccc(Cl)cc2)c2ccccc2c1=O` (racemic) [Example 144, (±)-2-(exo-bicyclo[2.2.1]hept-2-yl)-N-[4-(4-chlorobenzyl)-1-oxophthalazin-2(1H)-yl]acetamide]?
**A.** Emax [1]: 139%; EC50: < 100 nM

**Q.** `COc1ccc(-c2nn(NC(=O)CC3CC4CCC3C4)c(=O)c3ccccc23)cc1` (racemic) [Example 151, (±)-2-(exo-bicyclo[2.2.1]hept-2-yl)-N-[4-(4-methoxyphenyl)-1-oxophthalazin-2(1H)-yl]acetamide] was tested. Which Emax [1] did it give?
**A.** Its Emax is 141%.

**Q.** And the EC50?
**A.** Its EC50 is under 100 nM.

**Q.** For `Cc1ccc(C)c(-c2nn(NC(=O)CC3CC4CCC3C4)c(=O)c3ccccc23)c1` (racemic) [Example 155, (±)-2-(exo-bicyclo[2.2.1]hept-2-yl)-N-[4-(2,5-dimethylphenyl)-1-oxophthalazin-2(1H)-yl]acetamide], which EC50 is on record?
**A.** Its EC50 is under 100 nM.

**Q.** What about the Max. % [1] of the same molecule?
**A.** The Max. % was 165%.

**Q.** For `Cc1ccc(-c2nn(NC(=O)CC3CC4CCC3C4)c(=O)c3ccccc23)c(C)c1` (racemic) [Example 160, (±)-2-(exo-bicyclo[2.2.1]hept-2-yl)-N-[4-(2,4-dimethylphenyl)-1-oxophthalazin-2(1H)-yl]acetamide], which Emax [1] is on record?
**A.** Its Emax is 157%.

**Q.** What about the EC50 of the same molecule?
**A.** Its EC50 is under 100 nM.

**Q.** Which results are given for `Cc1ccc(-c2nn(NC(=O)CC3CC4CCC3C4)c(=O)c3ccccc23)cc1C` (racemic) [Example 163, (±)-2-(exo-bicyclo[2.2.1]hept-2-yl)-N-[4-(3,4-dimethylphenyl)-1-oxophthalazin-2(1H)-yl]acetamide]?
**A.** Emax [1]: 177%; EC50: < 100 nM

**Q.** For `O=C(CC1CC2CCC1C2)Nn1nc(CCc2ccccc2)c2ccccc2c1=O` (racemic) [Example 167, (±)-2-(exo-bicyclo[2.2.1]hept-2-yl)-N-[1-oxo-4-(2-phenylethyl)phthalazin-2(1H)-yl]acetamide], which Emax [1] is on record?
**A.** The Emax was 144%.

**Q.** What about the EC50 of the same molecule?
**A.** Its EC50 is under 100 nM.

**Q.** `CC(C)c1ccc(-c2nn(NC(=O)C[C@H]3C[C@@H]4CC[C@H]3C4)c(=O)c3ccccc23)cc1` (racemic) [Example 168, (±)-2-(exo-bicyclo[2.2.1]hept-2-yl)-N-[4-(4-isopropylphenyl)-1-oxophthalazin-2(1H)-yl]acetamide] was tested. Which Emax [1] did it give?
**A.** Its Emax is 134%.

**Q.** What about the EC50 of the same molecule?
**A.** The EC50 was 100 to 500 nM.

**Q.** For `O=C(C[C@H]1C[C@@H]2CC[C@H]1C2)Nn1nc(C2(c3ccccc3)CC2)c2ccccc2c1=O` (racemic) [Example 172, (±)-2-(exo-bicyclo[2.2.1]hept-2-yl)-N-[1-oxo-4-(1-phenylcyclopropyl)phthalazin-2(1H)-yl]acetamide], which Emax [1] is on record?
**A.** The Emax was 195%.

**Q.** What about the EC50 of the same molecule?
**A.** The EC50 was under 100 nM.

**Q.** `O=C(CC1CC2CCC1C2)Nn1nc(-c2ccc(Cl)cc2)c2c(F)ccc(F)c2c1=O` (racemic) [Example 184, (±)-2-(exo-bicyclo[2.2.1]hept-2-yl)-N-[4-(4-chlorophenyl)-5,8-difluoro-1-oxophthalazin-2(1H)-yl]acetamide] was tested. Which Emax [1] did it give?
**A.** The Emax was 154%.

**Q.** And the EC50?
**A.** Its EC50 is under 100 nM.
